We go through two compounds from patent US5248604A, “Enzymatically active recombinant human acetylcholinesterase and hosts and vectors for expression thereof” (priority 1991, dated 1993).

The target in data set [1] is T1, recombinant human acetylcholinesterase mutant ser/r-met-AChE (serine instead of cysteine at position 611, additional N-terminal methionine; SEQ ID NO:1 numbering) (Homo sapiens, UniProt P22303, C611S).
T1 construct: made in house; host or cells: E. coli S.phi.930 harboring pMLF-52ser
Put plainly: Inhibitor specificity: enzyme reacted five minutes with inhibitor, then acetylthiocholine added (Ellman assay). Type of data set: biochemical. The following applies: substrate acetylthiocholine, non-purified enzyme. The procedure:
(§1) AChE activity was assayed by the spectrophotometric method of Ellman using acetylthiocholine as substrate (Ellman, G.L. et al. ([…]) Biochem. Pharm. 7: 88-95)). Acetylthiocholine hydrolysis generates free thiocholine which reacts with Ellman reagent (DTNB) to produce a yellow chromophore. The concentration of the yellow chromophore is determined by the absorption at 412 nm and is proportional to the amount of AChE present. One enzyme unit (U) is the amount of enzyme which hydrolyses 1 μmole of substrate per minute. The extinction coefficient of 1 M chromophore is […]. Specific activity is expressed as U/mg protein.
(§2) The authenticity of the activity of the refolded r-met-AChE and ser/r-met-AChE was verified by testing the refolded protein with two different substrates and a specific inhibitor. Acetylthiocholine (the specific substrate), and butyrylthiocholine (the BuChE substrate), and a specific inhibitor BW-284C51 (see Background of the Invention) were tested to see whether the recombinant enzyme retained the specific characteristics of the naturally-occurring enzyme. The enzyme was assayed with each of the two substrates, or first reacted for five minutes with the specific inhibitor BW-284651 and then the specific substrate was added to the reaction mix. […] Since the butyrylthiocholine was present at a 20-fold higher concentration than acetylthiocholine it is seen that the enzymatic activity towards the butyrylthiocholine is 200-fold less than towards the specific substrate. No activity at all was detected towards the 0.05 mM butyrylthiocholine.

In data set [2] the target is T2, recombinant human acetylcholinesterase mutant ser/r-met-AChE (serine instead of cysteine at position 611, additional N-terminal methionine); SEQ ID NO:1 numberin (Homo sapiens, UniProt P22303, C611S).
T2 construct: made in house; host or cells: E. coli S.phi.930 harboring pMLF-52ser
Described as above. In kind it is biochemical. The conditions noted are these: increasing dosages from 0.8×10^-8 M to 0.8×10^-6 M; dose-dependent. As for the experimental part: as §1, §2

Another data set has as its system CC(=O)SCC[N+](C)(C)C. Nature of the data set: purified protein, by the assay type. The conditions noted are these: other: refolded enzyme; Lineweaver-Burk plot (FIG. 8); pH 8.0.

T1 sequence (P22303 32-614 C611S): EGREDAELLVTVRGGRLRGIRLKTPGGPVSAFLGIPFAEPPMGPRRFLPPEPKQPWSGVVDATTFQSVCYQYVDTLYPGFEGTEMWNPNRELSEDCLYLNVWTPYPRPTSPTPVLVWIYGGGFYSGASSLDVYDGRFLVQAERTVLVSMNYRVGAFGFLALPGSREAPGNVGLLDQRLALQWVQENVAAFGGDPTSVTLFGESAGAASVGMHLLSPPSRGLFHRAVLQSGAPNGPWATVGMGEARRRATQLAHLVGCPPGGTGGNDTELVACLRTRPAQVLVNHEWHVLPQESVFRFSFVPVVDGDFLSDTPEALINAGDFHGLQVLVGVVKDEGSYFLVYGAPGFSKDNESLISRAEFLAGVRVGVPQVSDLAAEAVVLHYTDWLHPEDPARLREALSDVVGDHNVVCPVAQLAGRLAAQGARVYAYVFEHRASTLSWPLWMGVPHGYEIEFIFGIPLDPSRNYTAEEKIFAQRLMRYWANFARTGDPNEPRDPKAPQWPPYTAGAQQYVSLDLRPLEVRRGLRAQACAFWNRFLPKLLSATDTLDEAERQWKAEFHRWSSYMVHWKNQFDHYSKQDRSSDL
T2 sequence (P22303 32-614 C611S): as above
Procedure for CC(=O)SCC[N+](C)(C)C: Lineweaver-Burk Plot of ser/r-met-AChE Enzyme kinetics were determined for the mutant rAChE using acetylthiocholine as substrate.
AChE activity was assayed by the spectrophotometric method of Ellman using acetylthiocholine as substrate (Ellman, G.L. et al. (1981) Biochem. Pharm. 7: 88-95)). Acetylthiocholine hydrolysis generates free thiocholine which reacts with Ellman reagent (DTNB) to produce a yellow chromophore. The concentration of the yellow chromophore is determined by the absorption at 412 nm and is proportional to the amount of AChE present. One enzyme unit (U) is the amount of enzyme which hydrolyses 1 μmole of substrate per minute. The extinction coefficient of 1 M chromophore is 13.6×10^4. Specific activity is expressed as U/mg protein.

Take `C=CC[N+](C)(C)c1ccc(CCC(=O)CCc2ccc([N+](C)(C)CC=C)cc2)cc1` [BW284C51]: the inhibition at 0.8 µM in data set [1] (BW284C51 0.8 × 10^-6 M) worked out at 100%. The inhibition at 0.08 µM in data set [1] (BW284C51 0.8 × 10^-7 M) was 87%. In addition, the inhibition at 0.008 µM in data set [1] (BW284C51 0.8 × 10^-8 M) was 55%. For the same compound, in data set [2], the inhibition is on record as 57%-100%.
Take “recombinant human acetylcholinesterase mutant ser/r-met-AChE (serine instead of cysteine at position 611, additional N-terminal methionine; SEQ ID NO:1 numbering) (Homo sapiens; C611S)”: the Km with CC(=O)SCC[N+](C)(C)C is 100 µM.

One may read the inhibition as the change of the read-out against control, counted positive when it falls. As usually defined, the Km is the concentration of substrate that gives half-maximal velocity.
